Laboratory results as given in US9067968B2, “Tight junction protein modulators and uses thereof” (The Regents of the University of Colorado, a body corporate, priority 2007, dated 2015).
Bridges are numbered along the chain shown (N, C = ends). Where no end group is shown, it is not given here.

Assays:
EPH4 cells [1] = experiment: TER of intact high resistance monolayers during peptide treatment; type: cell-based, mouse; details: 350 μM, 3 days of peptide treatment, replenished daily
Experimental: (§1) FIGS. 4A and 4B show the effects of the LYHY (SEQ ID NO:1) peptide on TUNEL reactivity and TER. In particular, FIG. 4A is a graph showing the number of TUNEL stained EPH4 and MDCK cells that were grown on glass slides and treated with LYHY (SEQ ID NO:1) or control peptide for 6 or 12 hours. FIG. 4B is a graph of TER that was recorded at 0, 24, […], and 72 hours post peptide treatment of EPH4 cells that were grown on filters until the TER reached 1000 (Ohms·cm^2), then treated with solvent, LYHY (SEQ ID NO:1), or control peptides. Peptides were diluted to 350 μM in normal growth medium and placed in the top and bottom chambers. TER was recorded at 0, 24, 48, and 72 hours post peptide treatment. Peptides were replenished daily, after recordings.
Similarly, treatment of EPH4 cells with a larger occludin mimic peptide caused a change in occludin distribution while treated cells maintained the majority of control TER.

MDCK cells = experiment: TUNEL staining of peptide-treated MDCK cells; type: cell-based, canine; details: 6 or 12 hours
Experimental: (§2) TUNEL staining was performed using the Roche In Situ Cell Death Detection Kit, TMR red. Cells were fixed in 2% paraformaldehyde and permeabilized in 1% sodium citrate (trisodium salt) containing 0.1% TX-100. Staining was performed as per manufacturers instructions.
(§3) Having established that LYHY (SEQ ID NO:1) and DFYNP (SEQ ID NO:3) peptides impeded recovery of TER following the calcium switch and changed the normal distribution of occludin, the effects of disruption of occludin function on apoptosis was examined. EPH4 mouse mammary epithelial cells and MDCK canine kidney epithelial cells were treated with LYHY (SEQ ID NO:1) peptide for various times and then TUNEL stained.
as §1, with “Peptides were replenished daily, after recordings.” left out

occludin = experiment: Occludin distribution by immunofluorescence after peptide treatment; type: cell-based, mouse; details: mature EPH4 monolayers, 8 hours at 350 μM
Experimental: To establish the effect of LYHY (SEQ ID NO:1) and DFYNP (SEQ ID NO:2) peptide treatment upon the distribution of endogenous occludin, EPH4 cells were treated with the peptides for 8 hours. The effect of peptides on occludin distribution in mature EPH4 cell monolayers is shown on FIG. 3B, where cell cultures grown on glass slides were treated with LYHY (SEQ ID NO:1), DFYNP (SEQ ID NO:2) or control LYQY (SEQ ID NO:3) peptide for 8 hours at 350 μM. Cells were then stained for occludin. […] Occludin was not as brightly stained at the tight junction in these cells and appeared in intracellular regions outside the tight junction.

[2] = tested on: activated caspase-8 and activated caspase-3; experiment: Activated caspase stains in live peptide-treated cells; type: cell-based, mouse; details: EPH4 cells, 2 h post peptide treatment, 350 μM
Experimental: Cells were stained with Image-iT®LIVE Green Caspase-8 Detection Kit, Molecular Probes and/or Image-iT®LIVE Red Caspase-3 and -7 Detection Kit, Molecular Probes. Stains were both diluted into differentiation media that contained LYHY (SEQ ID NO:1) or LYQY (SEQ ID NO:3). Cells were stained in the incubator 1 hour, rinsed in […] differentiation media, and processed for immunofluorescence.
Possible mechanism linking occludin disruption to a known means of initiation of apoptosis was then explored using the LYHY (SEQ ID NO:1) peptide. It is believed that the loss of cellular adhesion results in the activation of the death receptor pathway and specify caspase-8 as the initiator caspase in apoptosis occurring due to loss of either cadherin or integrin function. To observe potential activation of the caspase-8 cascade, live EPH4 cells that had been treated with LYHY (SEQ ID NO:1) or control peptide were stained with cell permeable, fluorescent probes that irreversibly bind the proteolytic sites of activated caspase-8 (carboxyfluoresceine-LETD-fmk) and activated caspase-3 (sulphorhodamine-DEVD-fmk). […] Areas showing caspase-3 activation overlapped with areas showing caspase-8 activation, while caspase-8 activation was more widespread and sometimes occurred alone. […]

EPH4 cells [3] = experiment: TUNEL staining of peptide-treated EPH4 cells; type: cell-based, mouse; details: for rate of apoptosis: peptide treatment of mature monolayers
Experimental: as §2, §3, §1

EPH4 cells [4] = experiment: Calcium switch: recovery of transepithelial resistance; type: cell-based, mouse; details: peptide 350 μM, removed after 24 hours
Experimental: To confirm that the LYHY (SEQ ID NO:1) and DFYNP (SEQ ID NO:2) peptides disrupted tight junction properties, a “calcium switch” experiment was performed. The removal of extracellular Ca^+2 and Mg^+2 abolished TER and disrupts intercellular junctions when applied to various epithelia, causing an intracellular redistribution of various cell adhesion proteins, including occludin, away from the apical junction complex. Several epithelial cell lines reorganized the apical junction complex and recovered TER following the replenishment of normal Ca^+2 and Mg^+2 containing medium. The calcium switch was performed on filter-grown EPH4 cells that had achieved a TER of 1000 Ohms·cm^2. After 15 minutes in Ca^+2 and Mg^+2 depleted-medium, TER was reduced to baseline resistance. Cells were then switched back to normal medium containing the occludin peptide, the claudin peptide or the control peptide at a concentration of 350 μM. The control peptide (LYQY (SEQ ID NO:3)) had one amino acid substitution of the occludin peptide and was also circularized with cysteines at each terminus. Peptides were removed after 24 hours. […] TER was measured at 12 and 24 hours following peptide application. Peptides were washed away 24 hours following application and TER was measured every 24 hours thereafter. […]

For “cyclic H-CLYHYC-OH (flanking Cys, cyclised; TJ Protein Modulator 1) [Occludin second extracellular loop peptide, cyclized via flanking cysteines]”, the “effect on TER of intact monolayers” value (EPH4 cells [1]) was “did not significantly reduce TER”, the TUNEL staining (MDCK cells) was “increased TUNEL staining” and the “distribution of endogenous occludin” value (occludin) was “islands of cells with irregular occludin distribution”. The “staining for activated caspases (caspase-8, caspase-3)” value [2] was “increased staining for activated caspases relative to controls”, the TUNEL staining (EPH4 cells [3]; EPH4 cells, 6 or 12 hours) was “increased TUNEL staining” and the rate of apoptosis (EPH4 cells [3]) was “increase the rate of apoptosis”.
In the case of “H-CDFYNPC (disulfide 1-7; not fully specified) [peptide derived from the second extracellular loop of several claudins, cyclized via flanking cysteines]”, the “effect on TER of intact monolayers” value (EPH4 cells [1]) is reported as “did not significantly reduce TER”, the “distribution of endogenous occludin” value (occludin) is reported as “islands of cells with irregular occludin distribution” and the rate of apoptosis (EPH4 cells [3]) is reported as “increase the rate of apoptosis”.
“Cyclic H-CLYQYC-OH (flanking Cys, cyclised; Control Peptide Fig. 3A) [control peptide with one amino acid substitution of the occludin peptide, circularized with cysteines at each terminus]” was tested, and the “distribution of endogenous occludin” value (occludin) was “Only an occasional cell showing non-tight junctional distribution of occludin”, the “TER reached after the calcium switch” value (EPH4 cells [4]; after about 6 days / several days following peptide removal) was 4000 Ohms·cm^2 and the “time to recover initial TER following the calcium switch” value (EPH4 cells [4]; initial TER 1000 Ohms·cm^2) was ≤ 48 h.
